# Test results published in ChEMBL document CHEMBL1201862, “PubChem BioAssay data set” (2004).
# The source made the active and inactive calls.
# Assays:
# [1] = THP-1 cell cytotoxicity, dose response, cytotoxicity control for non-replicating M. tuberculosis project (AID 489025); assay type: functional
# [2] = HepG2 cell cytotoxicity, dose response, cytotoxicity control for non-replicating M. tuberculosis project (AID 489018); assay type: functional; conditions: Mycobacterium tuberculosis
# cells = assay type: functional
# HEK293 = assay: cells; conditions: Homo sapiens;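 further: cells exposed to compound for 14 hours overnight before viability readout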
# [3] = Vero E6 cell cytotoxicity, dose response, cytotoxicity control for non-replicating M. tuberculosis project, secondary assay (AID 492998); assay type: functional, VeroE6; conditions: Vero C1008
# [4] = target: Nucleotide-binding oligomerization domain-containing protein 2 (Homo sapiens, UniProt Q9HC29); assay: PubChem AID 2334; assay type: functional
# [5] = target: T1, Nucleotide-binding oligomerization domain-containing protein 1 (Homo sapiens, UniProt Q9Y239); assay: NOD1 signaling inhibitors, SAR follow-up, revised (AID 2333); assay type: functional
# T1 sequence (Q9Y239 whole entry): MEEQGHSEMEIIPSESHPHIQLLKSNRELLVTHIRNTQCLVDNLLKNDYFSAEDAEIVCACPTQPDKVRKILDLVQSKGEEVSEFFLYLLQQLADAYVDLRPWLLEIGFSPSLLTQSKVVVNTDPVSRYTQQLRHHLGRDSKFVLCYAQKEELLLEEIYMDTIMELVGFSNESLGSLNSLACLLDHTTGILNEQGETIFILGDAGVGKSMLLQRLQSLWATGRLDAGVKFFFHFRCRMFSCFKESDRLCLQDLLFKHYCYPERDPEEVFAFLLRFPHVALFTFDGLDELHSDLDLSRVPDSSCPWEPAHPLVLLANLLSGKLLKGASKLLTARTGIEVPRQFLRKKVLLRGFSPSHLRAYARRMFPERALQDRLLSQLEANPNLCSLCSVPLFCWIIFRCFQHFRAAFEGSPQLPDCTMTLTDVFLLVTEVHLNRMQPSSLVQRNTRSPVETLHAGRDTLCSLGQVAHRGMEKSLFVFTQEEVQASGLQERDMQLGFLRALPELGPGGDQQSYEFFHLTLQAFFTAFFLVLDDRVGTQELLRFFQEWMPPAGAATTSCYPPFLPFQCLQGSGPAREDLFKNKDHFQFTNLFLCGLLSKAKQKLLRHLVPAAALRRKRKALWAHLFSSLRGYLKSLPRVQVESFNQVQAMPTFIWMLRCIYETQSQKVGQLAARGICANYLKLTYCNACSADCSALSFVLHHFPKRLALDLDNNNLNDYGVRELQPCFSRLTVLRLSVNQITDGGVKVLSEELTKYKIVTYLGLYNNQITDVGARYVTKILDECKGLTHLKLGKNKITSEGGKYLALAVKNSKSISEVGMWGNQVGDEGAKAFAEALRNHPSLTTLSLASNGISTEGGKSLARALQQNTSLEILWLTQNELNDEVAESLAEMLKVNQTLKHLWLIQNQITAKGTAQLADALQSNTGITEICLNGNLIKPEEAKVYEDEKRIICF
# Tumor necrosis factor = Tumor necrosis factor (Homo sapiens, UniProt P01375); assay: TNFa-triggered NF-kB activation inhibitors, SAR follow-up, cell-based, revised (AID 2337); assay type: functional
# SUMO-activating enzyme = SUMO-activating enzyme (Homo sapiens, UniProt Q9UBT2); assay: SUMOylation inhibitor hit validation, confirmation, SUMOylation inhibitor project, biochemical, AlphaScreen (AID 2018); assay type: functional
# [6] = target: Eukaryotic translation initiation factor 4E (Mus musculus, UniProt P63073); assay: eIF4E–eIF4G protein interaction inhibitors, dose response, biochemical, TR-FRET (AID 855); assay type: functional;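 further: potency for disrupting eIF4E binding to eIF4GI seen as loss of FRET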
# [7] = Luminescence Cell-Based Dose Retest to Confirm Inhibitors of Cancer Stem Cells. [Related pubchem assays (depositor defined):AID2717, AID2721]; assay type: functional; conditions: Homo sapiens
# [8] = target: T2, Ubiquitin-conjugating enzyme E2 N (Homo sapiens, UniProt P61088); assay type: functional;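 further: Dose-response confirmation in a TR-FRET assay detecting UBC13-driven polyubiquitin chain formation, inhibition measured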
# T2 sequence (P61088 whole entry): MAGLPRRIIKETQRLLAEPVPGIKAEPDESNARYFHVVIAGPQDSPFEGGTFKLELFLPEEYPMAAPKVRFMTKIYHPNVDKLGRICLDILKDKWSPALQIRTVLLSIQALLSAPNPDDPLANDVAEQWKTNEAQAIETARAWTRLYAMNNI
# [9] = A cytotoxicity screen of small molecule inhibitors of the PhoP region in Salmonella typhi identified in the primary screen. [Related pubchem assays: 1850, 1864, 1985 ]; assay type: functional
# [10] = cytotoxicity toward NIH3T3 fibroblasts, dose response, counter-screen, cell-based, ATP luminescence, mouse fibroblasts (AID 2010); assay type: functional;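 further: cells exposed to compound for about 90 hours before reading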
# [11] = inhibitors of intracellular T. cruzi replication, confirmation, NIH3T3 host cells, beta-gal luminescence (AID 2044); assay type: functional, cell-based;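 further: intracellular parasites grown in NIH/3T3 mouse fibroblasts as host cells; luminescent beta-galactosidase reporter signal from transgenic T. cruzi replicating inside host cells; inhibitors lower the luminescence signal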
# [12] = target: T3, Polyadenylate-binding protein 1 (Homo sapiens, UniProt P11940); assay: PABP1 MLLE–PAM2 interaction inhibitors, dose response, miRNA deadenylation inhibitor project, biochemical, fluorescence polarization, Cy5-PAM2 peptide, secondary (AID 602260); assay type: functional; conditions: read-out: IC50_Mean
# [13] = target: DNA dC->dU-editing enzyme APOBEC-3G (Homo sapiens, UniProt Q9HC16); assay: Dose Response confirmation of small molecule APOBEC3G DNA Deaminase Inhibitors via a fluorescence-based single-stranded DNA deaminase assay. [Related pubchem assays (depositor defined):AID493012, AID493028]; assay type: functional
# [14] = target: T3, Polyadenylate-binding protein 1; assay: PABP1 MLLE–PAM2 binding inhibitor potency, dose response, biochemical, fluorescence polarization, FITC-PAM2 peptide (AID 602259); assay type: functional; conditions: read-out: IC50_Mean
# 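Wherever AC50 is given: cells exposed to compound for roughly 70 hours or longer before luminescence read.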
# Sequence of Nucleotide-binding oligomerization domain-containing protein 2 (Q9HC29 whole entry, the tested form may be a part): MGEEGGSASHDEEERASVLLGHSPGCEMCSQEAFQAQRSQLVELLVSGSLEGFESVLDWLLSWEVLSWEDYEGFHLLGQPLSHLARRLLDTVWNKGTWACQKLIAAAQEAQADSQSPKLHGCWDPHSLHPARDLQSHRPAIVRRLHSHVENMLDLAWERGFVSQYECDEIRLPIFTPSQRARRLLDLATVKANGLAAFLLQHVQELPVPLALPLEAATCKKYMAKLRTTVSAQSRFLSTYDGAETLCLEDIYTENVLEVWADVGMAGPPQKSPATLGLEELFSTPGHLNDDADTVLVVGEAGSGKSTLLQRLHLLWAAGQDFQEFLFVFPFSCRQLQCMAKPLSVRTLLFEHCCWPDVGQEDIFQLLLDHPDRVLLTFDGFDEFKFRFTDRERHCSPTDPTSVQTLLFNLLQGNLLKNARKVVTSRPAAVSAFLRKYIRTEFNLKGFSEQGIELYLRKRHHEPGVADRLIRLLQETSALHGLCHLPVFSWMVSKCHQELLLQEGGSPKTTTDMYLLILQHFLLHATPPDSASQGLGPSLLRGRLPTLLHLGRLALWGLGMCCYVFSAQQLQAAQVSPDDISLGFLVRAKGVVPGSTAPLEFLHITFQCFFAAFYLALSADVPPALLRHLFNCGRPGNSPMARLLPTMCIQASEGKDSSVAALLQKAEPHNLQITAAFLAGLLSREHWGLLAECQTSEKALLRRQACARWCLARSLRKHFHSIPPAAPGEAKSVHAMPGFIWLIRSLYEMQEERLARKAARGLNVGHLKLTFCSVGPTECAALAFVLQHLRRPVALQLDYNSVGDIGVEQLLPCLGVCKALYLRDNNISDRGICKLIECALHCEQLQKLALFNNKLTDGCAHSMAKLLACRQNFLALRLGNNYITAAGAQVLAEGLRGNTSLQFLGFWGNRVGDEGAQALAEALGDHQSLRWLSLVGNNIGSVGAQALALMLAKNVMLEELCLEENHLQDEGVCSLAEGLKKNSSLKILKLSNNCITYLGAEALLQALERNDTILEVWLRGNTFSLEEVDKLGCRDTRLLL
# Sequence of Tumor necrosis factor (P01375 whole entry): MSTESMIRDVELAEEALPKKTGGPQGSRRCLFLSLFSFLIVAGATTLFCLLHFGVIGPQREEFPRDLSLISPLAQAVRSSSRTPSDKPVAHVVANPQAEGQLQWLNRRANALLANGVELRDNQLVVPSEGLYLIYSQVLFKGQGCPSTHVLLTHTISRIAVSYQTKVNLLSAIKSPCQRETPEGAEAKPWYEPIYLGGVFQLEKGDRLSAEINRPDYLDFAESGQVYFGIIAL
# Sequence of SUMO-activating enzyme (Q9UBE0 whole entry): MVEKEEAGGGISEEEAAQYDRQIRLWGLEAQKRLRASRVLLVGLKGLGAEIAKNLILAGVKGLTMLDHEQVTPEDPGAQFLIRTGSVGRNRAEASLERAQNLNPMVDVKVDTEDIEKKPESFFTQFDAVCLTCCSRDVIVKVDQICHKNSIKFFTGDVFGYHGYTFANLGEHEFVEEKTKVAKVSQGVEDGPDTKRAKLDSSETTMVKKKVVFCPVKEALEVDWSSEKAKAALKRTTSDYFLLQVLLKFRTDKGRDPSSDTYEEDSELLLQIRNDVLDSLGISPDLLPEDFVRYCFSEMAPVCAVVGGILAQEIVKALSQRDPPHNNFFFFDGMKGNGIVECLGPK
# Sequence of SUMO-activating enzyme (Q9UBT2 whole entry): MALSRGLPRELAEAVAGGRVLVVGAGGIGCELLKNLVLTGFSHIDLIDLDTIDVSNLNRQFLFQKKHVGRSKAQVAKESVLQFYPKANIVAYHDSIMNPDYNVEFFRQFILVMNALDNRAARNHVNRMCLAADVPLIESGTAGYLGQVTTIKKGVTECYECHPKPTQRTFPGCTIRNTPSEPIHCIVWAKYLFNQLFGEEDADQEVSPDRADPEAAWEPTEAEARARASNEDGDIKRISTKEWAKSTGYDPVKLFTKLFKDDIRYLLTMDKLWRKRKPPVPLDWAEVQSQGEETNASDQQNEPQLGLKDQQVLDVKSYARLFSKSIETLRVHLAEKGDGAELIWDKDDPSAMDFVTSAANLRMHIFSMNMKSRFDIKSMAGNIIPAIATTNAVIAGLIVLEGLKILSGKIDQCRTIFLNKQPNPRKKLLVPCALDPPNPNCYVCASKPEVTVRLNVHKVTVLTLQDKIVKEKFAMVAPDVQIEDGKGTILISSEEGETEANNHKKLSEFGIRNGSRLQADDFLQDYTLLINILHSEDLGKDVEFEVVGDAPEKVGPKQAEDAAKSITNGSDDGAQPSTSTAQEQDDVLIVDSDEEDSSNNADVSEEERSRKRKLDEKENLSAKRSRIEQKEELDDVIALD
# Sequence of Eukaryotic translation initiation factor 4E (P63073 whole entry): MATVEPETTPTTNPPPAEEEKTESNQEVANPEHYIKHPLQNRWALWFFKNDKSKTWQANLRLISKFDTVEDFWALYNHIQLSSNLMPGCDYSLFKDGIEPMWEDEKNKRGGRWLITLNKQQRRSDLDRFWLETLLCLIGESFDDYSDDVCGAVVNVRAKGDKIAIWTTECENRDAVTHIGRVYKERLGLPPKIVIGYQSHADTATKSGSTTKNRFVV
# T3 sequence (P11940 whole entry): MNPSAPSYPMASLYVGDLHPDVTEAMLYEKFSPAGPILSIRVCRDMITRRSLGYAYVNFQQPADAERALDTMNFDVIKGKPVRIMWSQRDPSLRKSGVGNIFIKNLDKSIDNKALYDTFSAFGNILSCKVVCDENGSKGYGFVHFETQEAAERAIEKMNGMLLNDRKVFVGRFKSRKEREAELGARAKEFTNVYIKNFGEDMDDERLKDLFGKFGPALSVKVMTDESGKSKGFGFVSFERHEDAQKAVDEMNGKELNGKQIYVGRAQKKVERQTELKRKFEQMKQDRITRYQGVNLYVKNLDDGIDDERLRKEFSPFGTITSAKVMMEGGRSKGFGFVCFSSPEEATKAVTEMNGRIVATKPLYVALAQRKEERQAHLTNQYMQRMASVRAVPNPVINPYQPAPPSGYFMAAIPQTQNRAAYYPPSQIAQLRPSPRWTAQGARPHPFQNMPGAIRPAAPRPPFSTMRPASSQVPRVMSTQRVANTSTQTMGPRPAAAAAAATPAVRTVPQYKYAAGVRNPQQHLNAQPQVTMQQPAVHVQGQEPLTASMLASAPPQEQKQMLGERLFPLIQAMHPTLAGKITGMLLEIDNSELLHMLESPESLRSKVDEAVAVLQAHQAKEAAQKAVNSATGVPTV
# Sequence of DNA dC->dU-editing enzyme APOBEC-3G (Q9HC16 whole entry): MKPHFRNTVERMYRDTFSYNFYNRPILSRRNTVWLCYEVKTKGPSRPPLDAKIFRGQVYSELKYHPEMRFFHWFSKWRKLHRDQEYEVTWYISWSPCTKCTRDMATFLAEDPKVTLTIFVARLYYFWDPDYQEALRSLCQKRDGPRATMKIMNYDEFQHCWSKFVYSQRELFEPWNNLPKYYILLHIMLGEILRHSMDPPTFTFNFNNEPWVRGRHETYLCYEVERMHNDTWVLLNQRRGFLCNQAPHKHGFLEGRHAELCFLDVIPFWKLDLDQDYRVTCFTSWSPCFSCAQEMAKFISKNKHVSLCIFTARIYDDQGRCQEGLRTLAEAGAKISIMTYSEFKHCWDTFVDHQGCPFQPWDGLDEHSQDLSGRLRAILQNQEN
SMILES,IC50 (HEK293),IC50 [4],IC50 [5],IC50 (Tumor necrosis factor),further results
CC(=O)Nc1nc2ccccc2n1Cc1ccccc1Cl,> 20 µM (inactive),> 20 µM (inactive),> 20 µM (inactive),19.9 µM (active),CC50 [1]: 14.1 µM (active); CC50 [2]: > 20 µM (active); IC50 (cells): 4.15 µM (active); CC50 [3]: 15.5 µM (active)
O=C(O)c1c(-n2cccc2)sc2c1CCCC2,> 20 µM (inactive),> 20 µM (inactive),> 20 µM (inactive),> 20 µM (inactive),
COc1cc(NC(=O)c2cncc(-c3ccc(C#N)cc3)c2)cc(C(=O)Nc2cccc(C(F)(F)F)c2)c1,,,,,IC50 (SUMO-activating enzyme): 53.5 µM (active)
NC(=O)CC(NC(=O)Cc1cccc2ccccc12)c1ccc(NCCc2ccccc2F)c([N+](=O)[O-])c1 (stereo unspecified),,,,,IC50 (SUMO-activating enzyme): 39 µM (active)
O=C(O)C1CC(c2ccccc2F)=NO1 (stereo unspecified),,,,,IC50 [6]: > 64 µM (inactive)
CCN1CCN(CCNC(=O)c2ccc3c(c2)N(Cc2ccc(F)cc2)C(=O)/C(=C/c2ccccc2)S3)CC1,,,,,AC50 [7]: 3.61 µM (active); IC50 [8]: > 20 µM (inactive); IC50 [6]: 50 µM (inactive)
N#C/C(=C(/O)COC(=O)CSc1ccc(Cl)cc1)c1nc2ccccc2[nH]1,> 20 µM (inactive),> 20 µM (inactive),> 20 µM (inactive),> 20 µM (inactive),
O=C(NCCc1ccncc1)Nc1ccc(Cl)c(Cl)c1,,,,,EC50 [9]: > 50 µM (active); EC50 [10]: > 60 µM (not active); EC50 [11]: 1.34 µM (active)
O=C(Nc1nc2ccccc2n1Cc1ccc(Cl)cc1)c1ccc(F)cc1,> 20 µM (inactive),> 20 µM (inactive),> 20 µM (inactive),> 20 µM (inactive),
O=C(Nc1nc2ccccc2n1Cc1ccc(Cl)cc1)C1CCCCC1,> 20 µM (inactive),> 20 µM (inactive),> 20 µM (inactive),> 20 µM (inactive),
Cc1ccc2c(c1)-c1c(ssc1=S)C(C)(C)N2C(=O)c1ccco1,,,,,IC50 [12]: > 66 µM (inactive); IC50 [13]: > 100 µM (inactive); IC50 [14]: > 66 µM (inactive)
